Test results: ChEMBL document CHEMBL1208781, “Identification of N-(2-(azepan-1-yl)-2-phenylethyl)-benzenesulfonamides as novel inhibitors of GlyT1” (Bioorg Med Chem Lett, 2010)

Tested on: Brain
Assay: Drug level in Sprague-Dawley rat brain at 2.5 umol/kg, sc after 1 hr
Format: ADME, organism-based
Settings: in vivo

Going from COc1ccccc1C(CNS(=O)(=O)c1ccc(C(F)(F)F)cc1)N1CCCCCC1 (centres undefined) to COc1ccccc1C(CNS(=O)(=O)c1ccc(Cl)cc1)N1CCCCCC1 (centres undefined), the Drug uptake rises from 154 nmol/kg to 202 nmol/kg.

COc1ccccc1C(CNS(=O)(=O)c1ccc(F)c(Cl)c1)N1CCCCCC1 (centres undefined) gave a Drug uptake of 168 nmol/kg.

Tested on: not listed separately
Assay: Drug level in brain to plasma in Sprague-Dawley rat at 2.5 umol/kg, sc after 1 hr
Format: ADME, organism-based
Settings: not given

Going from COc1ccccc1C(CNS(=O)(=O)c1ccc(C(F)(F)F)cc1)N1CCCCCC1 (centres undefined) to COc1ccccc1C(CNS(=O)(=O)c1ccc(Cl)cc1)N1CCCCCC1 (centres undefined), the Kp at 1 h falls from 2.1 to 1.9.

Compound COc1ccccc1C(CNS(=O)(=O)c1ccc(F)c(Cl)c1)N1CCCCCC1 (centres undefined) has a Kp at 1 h of 1.6.

Tested on: not listed separately
Assay: Plasma concentration in Sprague-Dawley rat at 2.5 umol/kg, sc after 1 hr
Format: ADME, organism-based
Settings: read-out: Drug uptake

COc1ccccc1C(CNS(=O)(=O)c1ccc(C(F)(F)F)cc1)N1CCCCCC1 (centres undefined) and COc1ccccc1C(CNS(=O)(=O)c1ccc(Cl)cc1)N1CCCCCC1 (centres undefined) are within 1.5-fold of each other in concentration at 1 h: 72 nM for the first, 103 nM for the second.

For COc1ccccc1C(CNS(=O)(=O)c1ccc(F)c(Cl)c1)N1CCCCCC1 (centres undefined), the concentration at 1 h was 105 nM.
